Reference: patent publication US10160729B2, “Hsp70 modulators and methods for making and using the same” (Memorial Sloan Kettering Cancer Center, priority 2014, dated 2018)

system: MOLM-13 cells; assay: Caspase cleavage assay (Caspase3, 7 activation); format: cell-based; settings: Homo sapiens, 16 h treatment, caspase substrate Z-DEVD-R110, read-out: c* Concentration at which 50% of the maximum signal was achieved (caspase activation)
In short: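 Cells (30,000/well, RPMI) treated 16 h with compound or DMSO in triplicate, then given buffer with 10 mM HEPES pH 7.5, 2 mM EDTA, 0.1% CHAPS and 25 μM Z-DEVD-R110. Fluorescence read once signal stabilized; results given as percentage increase in apoptotic cells versus DMSO-treated control.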

| EC50 [nM] | Compound |
| --- | --- |
| 1000 to 1200 | CN1CCN(c2ncc(Sc3ccc(C(N)=O)c(C(F)(F)F)c3)c(OCc3cccc(N(C)C)c3)n2)CC1=O [compound 345, 4-((4-((3-(Dimethylamino)benzyl)oxy)-2-(4-methyl-3-oxopiperazin-1-yl)pyrimidin-5-yl)thio)-2-(trifluoromethyl)benzamide] |
| 400 to 1000 | C#CCN1CCN(c2ncc(Sc3ccc(C(N)=O)cc3)c(OCc3cccc(Cl)c3)n2)CC1 [compound 348, 4-((4-((3-Chlorobenzyl)oxy)-2-(4-(prop-2-yn-1-yl)piperazin-1-yl)pyrimidin-5-yl)thio)benzamide] |
| 1000 to 1200 | C#CCN1CCN(c2ncc(Sc3ccc(C(N)=O)c(C(F)(F)F)c3)c(OCc3cccc(Cl)c3)n2)CC1 [compound 351, 4-((4-((3-Chlorobenzyl)oxy)-2-(4-(prop-2-yn-1-yl)piperazin-1-yl)pyrimidin-5-yl)thio)-2-(trifluoromethyl)benzamide] |
| < 200 | C#CCN1CCN(c2ncc(Sc3ccc(C(N)=O)cc3)c(OCc3ccc(F)c(Cl)c3)n2)CC1 [compound 354, 4-((4-((3-Chloro-4-fluorobenzyl)oxy)-2-(4-(prop-2-yn-1-yl)piperazin-1-yl)pyrimidin-5-yl)thio)benzamide] |
| 200 to 400 | C#CCN1CCN(c2ncc(Sc3ccc(C(N)=O)c(C(F)(F)F)c3)c(OCc3cccc(I)c3)n2)CC1 [compound 357, 4-((4-((3-Iodobenzyl)oxy)-2-(4-(prop-2-yn-1-yl)piperazin-1-yl)pyrimidin-5-yl)thio)-2-(trifluoromethyl)benzamide] |
| 200 to 400 | CN(C)[C@@H]1CCN(c2ncc(Sc3ccc(C(N)=O)cc3)c(OCc3cccc(F)c3)n2)C1 [compound 363, (R)-4-((2-(3-(Dimethylamino)pyrrolidin-1-yl)-4-((3-fluorobenzyl)oxy)pyrimidin-5-yl)thio)benzamide] |
| 200 to 400 | CN(C)[C@@H]1CCN(c2ncc(Sc3ccc(C(N)=O)cc3)c(OCc3cccc(Cl)c3)n2)C1 [compound 365, (R)-4-((4-((3-Chlorobenzyl)oxy)-2-(3-(dimethylamino)pyrrolidin-1-yl)pyrimidin-5-yl)thio)benzamide] |
| 200 to 400 | CN(C)[C@@H]1CCN(c2ncc(Sc3ccc(C(N)=O)cc3)c(OCc3cccc(Br)c3)n2)C1 [compound 367, (R)-4-((4-((3-Bromobenzyl)oxy)-2-(3-(dimethylamino)pyrrolidin-1-yl)pyrimidin-5-yl)thio)benzamide] |
| 200 to 400 | CN(C)[C@@H]1CCN(c2ncc(Sc3ccc(C(N)=O)cc3)c(OCc3cccc(I)c3)n2)C1 [compound 369, (R)-4-((2-(3-(Dimethylamino)pyrrolidin-1-yl)-4-((3-iodobenzyl)oxy)pyrimidin-5-yl)thio)benzamide] |
| < 200 | COc1cccc(COc2nc(N3CC[C@@H](N(C)C)C3)ncc2Sc2ccc(N)nc2)c1 [compound 375, (R)-5-((2-(3-(Dimethylamino)pyrrolidin-1-yl)-4-((3-methoxybenzyl)oxy)pyrimidin-5-yl)thio)pyridin-2-amine] |
| < 200 | CN(C)[C@@H]1CCN(c2ncc(Sc3ccc(N)nc3)c(OCc3cccc(Cl)c3)n2)C1 [compound 376, (R)-5-((4-((3-Chlorobenzyl)oxy)-2-(3-(dimethylamino)pyrrolidin-1-yl)pyrimidin-5-yl)thio)pyridin-2-amine] |
| < 200 | NC(=O)c1ccc(Sc2cnc(N3CCN(CC#CCO)CC3)nc2OCc2cccc(Cl)c2)cc1 [compound 379, 4-((4-((3-Chlorobenzyl)oxy)-2-(4-(4-hydroxybut-2-yn-1-yl)piperazin-1-yl)pyrimidin-5-yl)thio)benzamide] |

Continued, compound first:

| Compound | EC50 [nM] |
| --- | --- |
| CN1CCN(c2ncc(Oc3ccc(C(N)=O)cc3)c(OCc3ccccc3)n2)CC1 [compound 282, 4-((4-(Benzyloxy)-2-(4-methylpiperazin-1-yl)pyrimidin-5-yl)oxy)benzamide] | ≥ 1200 |
| COc1ccc(COc2nc(N3CCN(C)CC3)ncc2Oc2ccc(C(N)=O)cc2)cc1 [compound 283, 4-((4-((4-Methoxybenzyl)oxy)-2-(4-methylpiperazin-1-yl)pyrimidin-5-yl)oxy)benzamide] | ≥ 1200 |
| CN1CCN(c2ncc(Oc3ccc(C(N)=O)cc3)c(OCc3cccc(N(C)C)c3)n2)CC1 [compound 284, 4-((4-((3-(Dimethylamino)benzyl)oxy)-2-(4-methylpiperazin-1-yl)pyrimidin-5-yl)oxy)benzamide] | 400 to 1000 |
| CN1CCN(c2ncc(Cc3ccc(C(N)=O)cc3)c(OCc3ccccc3)n2)CC1 [compound 299, 4-((4-(Benzyloxy)-2-(4-methylpiperazin-1-yl)pyrimidin-5-yl)methyl)benzamide] | 200 to 400 |
| CN1CCN(c2ncc(Cc3ccc(C(N)=O)cc3)c(OCc3ccc(C#N)cc3)n2)CC1 [compound 304, 4-((4-((4-Cyanobenzyl)oxy)-2-(4-methylpiperazin-1-yl)pyrimidin-5-yl)methyl)benzamide] | ≥ 1200 |
| COc1cccc(COc2nc(N3CCN(C4(C)CC4)CC3)ncc2Sc2ccc(C(N)=O)cc2)c1 [compound 311, 4-((4-((3-Methoxybenzyl)oxy)-2-(4-(1-methylcyclopropyl)piperazin-1-yl)pyrimidin-5-yl)thio)benzamide] | ≥ 1200 |
| COc1cccc(COc2nc(N3CCN(C(C)(C)C4CC4)CC3)ncc2Sc2ccc(C(N)=O)cc2)c1 [compound 313, 4-((2-(4-(2-Cyclopropylpropan-2-yl)piperazin-1-yl)-4-((3-methoxybenzyl)oxy)pyrimidin-5-yl)thio)benzamide] | ≥ 1200 |
| COc1cccc(COc2nc(N3CCN([C@@H](C)C4CC4)CC3)ncc2Sc2ccc(C(N)=O)cc2)c1 [compound 315, (S)-4-((2-(4-(1-Cyclopropylethyl)piperazin-1-yl)-4-((3-methoxybenzyl)oxy)pyrimidin-5-yl)thio)benzamide] | 1000 to 1200 |
| COc1cccc(COc2nc(N3CCN([C@H](C)C4CC4)CC3)ncc2Sc2ccc(C(N)=O)cc2)c1 [compound 317, (R)-4-((2-(4-(1-Cyclopropylethyl)piperazin-1-yl)-4-((3-methoxybenzyl)oxy)pyrimidin-5-yl)thio)benzamide] | ≥ 1200 |
| COc1cccc(COc2nc(N3CCNC(=O)C3)ncc2Sc2ccc(C(N)=O)cc2)c1 [compound 319, 4-((4-((3-Methoxybenzyl)oxy)-2-(3-oxopiperazin-1-yl)pyrimidin-5-yl)thio)benzamide] | ≥ 1200 |
| COc1cccc(COc2nc(N3CCN(CC4CC4)C(=O)C3)ncc2Sc2ccc(C(N)=O)cc2)c1 [compound 321, 4-((2-(4-(Cyclopropylmethyl)-3-oxopiperazin-1-yl)-4-((3-methoxybenzyl)oxy)pyrimidin-5-yl)thio)benzamide] | < 200 |
| COc1cccc(COc2nc(N3CCN(Cc4ncco4)CC3)ncc2Sc2ccc(C(N)=O)cc2)c1 [compound 323, 4-((4-((3-Methoxybenzyl)oxy)-2-(4-(oxazol-2-ylmethyl)piperazin-1-yl)pyrimidin-5-yl)thio)benzamide] | < 200 |
| COc1cccc(COc2nc(N3CCN(CC#CCO)CC3)ncc2Sc2ccc(C(N)=O)cc2)c1 [compound 326, 4-((2-(4-(4-Hydroxybut-2-yn-1-yl)piperazin-1-yl)-4-((3-methoxybenzyl)oxy)pyrimidin-5-yl)thio)benzamide] | < 200 |
| Cc1cccc(COc2nc(N3CCN(C)CC3)ncc2Sc2ccc(C(N)=O)c(C(F)(F)F)c2)c1 [compound 329, 4-((4-((3-Methylbenzyl)oxy)-2-(4-methylpiperazin-1-yl)pyrimidin-5-yl)thio)-2-(trifluoromethyl)benzamide] | 400 to 1000 |
| CC(C)c1cccc(COc2nc(N3CCN(C)CC3)ncc2Sc2ccc(C(N)=O)c(C(F)(F)F)c2)c1 [compound 331, 4-((4-((3-Isopropylbenzyl)oxy)-2-(4-methylpiperazin-1-yl)pyrimidin-5-yl)thio)-2-(trifluoromethyl)benzamide] | ≥ 1200 |
| CCc1cccc(COc2nc(N3CCN(C)CC3)ncc2Sc2ccc(C(N)=O)c(C(F)(F)F)c2)c1 [compound 333, 4-((4-((3-Ethylbenzyl)oxy)-2-(4-methylpiperazin-1-yl)pyrimidin-5-yl)thio)-2-(trifluoromethyl)benzamide] | 1000 to 1200 |
| C#CCN1CCN(c2ncc(Sc3ccc(C(N)=O)cc3)c(OCc3cccc(N(C)C)c3)n2)CC1 [compound 336, 4-((4-((3-(Dimethylamino)benzyl)oxy)-2-(4-(prop-2-yn-1-yl)piperazin-1-yl)pyrimidin-5-yl)thio)benzamide] | < 200 |
| C#CCN1CCN(c2ncc(Sc3ccc(C(N)=O)c(C(F)(F)F)c3)c(OCc3cccc(N(C)C)c3)n2)CC1 [compound 339, 4-((4-((3-(Dimethylamino)benzyl)oxy)-2-(4-(prop-2-yn-1-yl)piperazin-1-yl)pyrimidin-5-yl)thio)-2-(trifluoromethyl)benzamide] | 400 to 1000 |
| CN(C)c1cccc(COc2nc(N3CCN(C4CC4)CC3)ncc2Sc2ccc(C(N)=O)c(C(F)(F)F)c2)c1 [compound 341, 4-((2-(4-Cyclopropylpiperazin-1-yl)-4-((3-(dimethylamino)benzyl)oxy)pyrimidin-5-yl)thio)-2-(trifluoromethyl)benzamide] | ≥ 1200 |
| CN(C)c1cccc(COc2nc(N3CCN(CC4CC4)CC3)ncc2Sc2ccc(C(N)=O)c(C(F)(F)F)c2)c1 [compound 343, 4-((2-(4-(Cyclopropylmethyl)piperazin-1-yl)-4-((3-(dimethylamino)benzyl)oxy)pyrimidin-5-yl)thio)-2-(trifluoromethyl)benzamide] | ≥ 1200 |
